According to BindingDB's records for patent US20250162989 (Vincere Biosciences, 2025):

Target: T1, Ubiquitin carboxyl-terminal hydrolase 30 (Homo sapiens, UniProt Q70CQ3)
T1 sequence (Q70CQ3 whole entry): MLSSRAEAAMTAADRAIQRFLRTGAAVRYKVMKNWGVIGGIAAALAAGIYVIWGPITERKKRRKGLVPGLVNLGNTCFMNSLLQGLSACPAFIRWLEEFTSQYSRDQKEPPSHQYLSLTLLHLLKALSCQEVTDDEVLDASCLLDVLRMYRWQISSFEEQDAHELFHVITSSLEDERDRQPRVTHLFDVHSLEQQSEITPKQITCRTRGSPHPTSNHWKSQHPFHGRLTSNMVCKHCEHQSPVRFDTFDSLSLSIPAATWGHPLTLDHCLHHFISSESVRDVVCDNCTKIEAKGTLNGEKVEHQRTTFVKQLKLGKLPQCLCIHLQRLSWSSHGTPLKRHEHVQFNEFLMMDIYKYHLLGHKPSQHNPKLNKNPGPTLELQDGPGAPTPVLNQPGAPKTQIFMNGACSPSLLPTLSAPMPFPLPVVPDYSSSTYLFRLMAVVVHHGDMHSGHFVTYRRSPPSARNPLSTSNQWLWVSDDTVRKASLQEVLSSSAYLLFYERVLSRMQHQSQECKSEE
Assay: In Vitro USP30 Biochemical Assay
Procedure: In vitro biochemical assay to establish the potency of compounds for USP30 inhibition: a 384-well plate assay using a fluorophore tagged substrate of USP30 was used for in vitro screening of compounds. Each compound was tested at 10 different concentrations (0.5 to 10,000 nM) in duplicate wells. […] Data were analyzed using Graph Pad Prism software with a four-parameter (floating slope) fit to log concentration data to determine IC50s.

CC(C)(C)NS(=O)(=O)c1ccc(NC(=O)[C@H]2CCCN2C(=O)c2ccc(F)cc2)cc1 [US20250162989, Compound I-51]
IC50: > 10 µM
